# How the values were obtained:
# [1] = DRUGMATRIX: Sodium/nucleoside co-transporter radioligand binding (ligand: nitrobenzylthioinosine); format: cell membranes, Cavia porcellus, Dunkin-Hartley, Cerebral cortex, Membrane; conditions: Not Active = under 50% inhibition at 10 µM
# [2] = biological target: Mitogen-activated protein kinase 3 (Homo sapiens, UniProt P27361); experiment: DRUGMATRIX: Protein Serine/Threonine Kinase, ERK1 enzyme inhibition (substrate: Myelin Basic Protein); design: species or system Escherichia coli; conditions: Not Active = under 50% inhibition at 10 µM
# Mitogen-activated protein kinase 3, sequence (P27361 whole entry): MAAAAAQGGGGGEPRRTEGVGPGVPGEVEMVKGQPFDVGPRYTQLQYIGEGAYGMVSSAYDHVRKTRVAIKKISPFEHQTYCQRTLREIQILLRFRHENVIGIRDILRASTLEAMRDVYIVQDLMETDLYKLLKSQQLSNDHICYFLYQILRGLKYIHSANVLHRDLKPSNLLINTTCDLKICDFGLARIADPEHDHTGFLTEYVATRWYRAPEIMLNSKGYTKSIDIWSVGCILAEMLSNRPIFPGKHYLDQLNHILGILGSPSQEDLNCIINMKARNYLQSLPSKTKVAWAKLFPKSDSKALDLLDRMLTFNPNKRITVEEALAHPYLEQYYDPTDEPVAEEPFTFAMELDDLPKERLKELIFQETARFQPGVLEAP
# [3] = biological target: Sodium-dependent noradrenaline transporter (Homo sapiens, UniProt P23975); experiment: DRUGMATRIX: Norepinephrine Transporter radioligand binding (ligand: [125I] RTI-55); format: cell membranes, MDCK, Membrane; conditions: Not Active = under 50% inhibition at 10 µM
# Sodium-dependent noradrenaline transporter, sequence (P23975 whole entry): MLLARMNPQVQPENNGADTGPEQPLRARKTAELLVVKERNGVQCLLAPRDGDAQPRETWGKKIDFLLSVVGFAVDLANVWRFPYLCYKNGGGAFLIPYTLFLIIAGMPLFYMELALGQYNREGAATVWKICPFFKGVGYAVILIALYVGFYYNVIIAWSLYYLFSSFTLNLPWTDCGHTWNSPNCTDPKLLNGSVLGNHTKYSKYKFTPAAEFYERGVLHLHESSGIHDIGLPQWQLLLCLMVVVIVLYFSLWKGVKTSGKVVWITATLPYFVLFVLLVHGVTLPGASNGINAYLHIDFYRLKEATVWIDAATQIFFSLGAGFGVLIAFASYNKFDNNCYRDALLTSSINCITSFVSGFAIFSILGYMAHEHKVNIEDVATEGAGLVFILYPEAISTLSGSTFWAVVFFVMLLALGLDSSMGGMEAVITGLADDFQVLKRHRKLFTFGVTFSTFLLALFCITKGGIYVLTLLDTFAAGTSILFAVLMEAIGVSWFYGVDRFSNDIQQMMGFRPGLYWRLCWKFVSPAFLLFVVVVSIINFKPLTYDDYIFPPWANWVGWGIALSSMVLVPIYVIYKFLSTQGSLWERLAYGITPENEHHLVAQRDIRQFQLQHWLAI
# Vasopressin V1a receptor = Vasopressin V1a receptor (Homo sapiens, UniProt P37288); format: cell membranes, Membrane; conditions: hek293; also: in other assays of this panel Not Active means under 50% inhibition at 10 µM
# Vasopressin V1a receptor, sequence (P37288 whole entry): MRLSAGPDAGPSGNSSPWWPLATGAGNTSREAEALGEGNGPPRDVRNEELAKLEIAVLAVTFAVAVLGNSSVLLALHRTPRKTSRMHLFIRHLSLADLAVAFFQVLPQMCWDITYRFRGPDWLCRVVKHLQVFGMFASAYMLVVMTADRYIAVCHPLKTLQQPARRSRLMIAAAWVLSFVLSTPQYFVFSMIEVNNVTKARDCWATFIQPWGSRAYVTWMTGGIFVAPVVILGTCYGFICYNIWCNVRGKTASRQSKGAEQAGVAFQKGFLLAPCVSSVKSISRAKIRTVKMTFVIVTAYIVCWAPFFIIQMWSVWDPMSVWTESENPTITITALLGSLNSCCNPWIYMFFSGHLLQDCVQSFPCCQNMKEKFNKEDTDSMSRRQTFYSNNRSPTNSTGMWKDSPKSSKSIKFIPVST
# Melanocortin receptor 5 = Melanocortin receptor 5 (Homo sapiens, UniProt P33032); format: cell membranes, HEK293, Membrane; conditions: hek293; also: in other assays of this panel Not Active means under 50% inhibition at 10 µM
# Melanocortin receptor 5, sequence (P33032 whole entry): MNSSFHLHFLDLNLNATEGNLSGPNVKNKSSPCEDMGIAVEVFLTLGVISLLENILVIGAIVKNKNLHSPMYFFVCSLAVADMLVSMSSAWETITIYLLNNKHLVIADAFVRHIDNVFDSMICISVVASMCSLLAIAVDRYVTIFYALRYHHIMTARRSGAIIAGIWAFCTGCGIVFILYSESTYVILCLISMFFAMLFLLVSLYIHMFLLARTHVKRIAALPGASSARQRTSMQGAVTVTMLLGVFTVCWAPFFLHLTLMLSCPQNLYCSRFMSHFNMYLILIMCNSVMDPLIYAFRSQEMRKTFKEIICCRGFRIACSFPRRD
# Adenosine receptor A3 = biological target: T1, Adenosine receptor A3 (Homo sapiens, UniProt P0DMS8); format: cell membranes, CHO-K1, Membrane;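 also: radioligand binding assay with AB-MECA serving as the labeled ligand; in other assays of this panel Not Active means under 50% inhibition at 10 µM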
# T1 sequence (P0DMS8 whole entry): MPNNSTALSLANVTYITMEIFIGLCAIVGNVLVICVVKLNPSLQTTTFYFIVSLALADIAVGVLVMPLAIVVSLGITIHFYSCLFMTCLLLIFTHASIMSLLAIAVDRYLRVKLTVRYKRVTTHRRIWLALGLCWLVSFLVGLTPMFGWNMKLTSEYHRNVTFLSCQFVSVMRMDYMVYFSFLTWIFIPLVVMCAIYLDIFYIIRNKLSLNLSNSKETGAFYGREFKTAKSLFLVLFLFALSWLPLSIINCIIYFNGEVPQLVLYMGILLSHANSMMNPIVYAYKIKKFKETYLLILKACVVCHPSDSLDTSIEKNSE
# [4] = biological target: C-C chemokine receptor type 5 (Homo sapiens, UniProt P51681); format: cell membranes, Membrane; conditions: hek293; also: in other assays of this panel Not Active means under 50% inhibition at 10 µM
# C-C chemokine receptor type 5, sequence (P51681 whole entry): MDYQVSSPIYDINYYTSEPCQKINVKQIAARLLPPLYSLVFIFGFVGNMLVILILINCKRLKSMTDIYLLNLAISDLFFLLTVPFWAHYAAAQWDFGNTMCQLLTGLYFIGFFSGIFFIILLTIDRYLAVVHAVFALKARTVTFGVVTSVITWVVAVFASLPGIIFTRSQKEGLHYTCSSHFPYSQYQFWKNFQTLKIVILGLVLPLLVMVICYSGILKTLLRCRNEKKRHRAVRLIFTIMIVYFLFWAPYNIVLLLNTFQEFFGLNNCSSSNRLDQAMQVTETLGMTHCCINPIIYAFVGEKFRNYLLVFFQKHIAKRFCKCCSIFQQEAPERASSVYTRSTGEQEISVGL
Molecule,IC50 [1],Ki [1],IC50 [2],IC50 ([3]; read-out: IC50) [nM],Ki ([3]; read-out: Ki) [nM],IC50 (Vasopressin V1a receptor),IC50 (Melanocortin receptor 5),IC50 (Adenosine receptor A3; cho-k1),IC50 [4],IC50 ([3]; mdck),IC50 (Adenosine receptor A3; read-out: IC50) [nM],Ki (Adenosine receptor A3; read-out: Ki) [nM],Ki [2],Ki ([3]; mdck),Ki (Vasopressin V1a receptor),Ki (Melanocortin receptor 5),Ki (Adenosine receptor A3; cho-k1),Ki [4]
O=C(/C=C/c1ccc(O)c(O)c1)OCCc1ccccc1 [CAFFEIC ACID PHENETHYL ESTER],Not Active,Not Active,Not Active,3790,3760,Not Active,Not Active,Not Active,Not Active,,,,,,,,,
CCOC(=O)C1=C(C)NC(C)=C(C(=O)OC)C1c1cccc(Cl)c1Cl (centres undefined) [FELODIPINE],Not Active,Not Active,Not Active,,,Not Active,Not Active,,Not Active,Not Active,1060,597,,,,,,
OCCO [ETHYLENE GLYCOL],Not Active,Not Active,Not Active,,,Not Active,Not Active,Not Active,Not Active,Not Active,,,,,,,,
CCC[C@@H]1C[C@@H](C(=O)N[C@@H]([C@H]2O[C@H](SC)[C@H](O)[C@@H](O)[C@H]2O)[C@H](C)Cl)N(C)C1 [CLINDAMYCIN],Not Active,Not Active,Not Active,,,Not Active,Not Active,Not Active,Not Active,Not Active,,,,,,,,
C[C@H]([C@](O)(Cn1cncn1)c1ccc(F)cc1F)S(C)(=O)=O [GENACONAZOLE],Not Active,Not Active,Not Active,,,Not Active,Not Active,Not Active,Not Active,Not Active,,,,,,,,
Nc1nc(N)nc(NC2CC2)n1 [CYROMAZINE],Not Active,Not Active,Not Active,,,Not Active,Not Active,Not Active,Not Active,Not Active,,,,,,,,
CC[C@H](C)C(=O)O[C@H]1C[C@H](O)C=C2C=C[C@H](C)[C@H](CC[C@@H](O)C[C@@H](O)CC(=O)O)[C@H]21 [PRAVASTATIN],Not Active,Not Active,Not Active,,,Not Active,Not Active,Not Active,Not Active,Not Active,,,,,,,,
OCCN1CCN(CCCN2c3ccccc3Sc3ccc(Cl)cc32)CC1 [PERPHENAZINE],Not Active,Not Active,Not Active,,,Not Active,Not Active,Not Active,Not Active,Not Active,,,,,,,,
CC(C)(C)c1ccc(S(=O)(=O)/C=C/C#N)cc1 [BAY-11-7085],Not Active,Not Active,Not Active,,,Not Active,Not Active,Not Active,Not Active,Not Active,,,,,,,,
CCC(=O)O[C@H]1[C@H](O[C@@H]2[C@@H](C)[C@H](O[C@H]3C[C@@](C)(OC)[C@@H](O)[C@H](C)O3)[C@@H](C)C(=O)O[C@H](CC)[C@@](C)(O)[C@H](O)[C@@H](C)C(=O)[C@H](C)C[C@@]2(C)O)O[C@H](C)C[C@@H]1N(C)C [ERYTHROMYCIN PROPIONATE],Not Active,Not Active,Not Active,,,Not Active,Not Active,Not Active,Not Active,Not Active,,,,,,,,
Nc1nc(Cl)nc2c1ncn2[C@H]1C[C@H](O)[C@@H](CO)O1 [CLADRIBINE],Not Active,Not Active,Not Active,,,Not Active,Not Active,Not Active,Not Active,Not Active,,,,,,,,
CC(C)(Sc1cc(C(C)(C)C)c(O)c(C(C)(C)C)c1)Sc1cc(C(C)(C)C)c(O)c(C(C)(C)C)c1 [PROBUCOL],Not Active,Not Active,Not Active,,,Not Active,Not Active,Not Active,Not Active,Not Active,,,,,,,,
CN1C[C@H](C(=O)N[C@]2(C)O[C@@]3(O)[C@@H]4CCCN4C(=O)[C@H](Cc4ccccc4)N3C2=O)C[C@@H]2c3cccc4[nH]cc(c34)C[C@H]21 [DIHYDROERGOTAMINE],Not Active,Not Active,Not Active,,,Not Active,Not Active,Not Active,Not Active,Not Active,,,,,,,,
CC(CCc1ccc(O)cc1)NCCc1ccc(O)c(O)c1 (centres undefined) [DOBUTAMINE],Not Active,Not Active,Not Active,383,380,Not Active,Not Active,Not Active,Not Active,,,,,,,,,
POLYVINYL ALCOHOL,Not Active,Not Active,Not Active,,,Not Active,Not Active,Not Active,Not Active,Not Active,,,Not Active,Not Active,Not Active,Not Active,Not Active,Not Active
CS(=O)(=O)OCCCCOS(C)(=O)=O [BUSULFAN],Not Active,Not Active,Not Active,,,Not Active,Not Active,Not Active,Not Active,Not Active,,,,,,,,
CC[C@H]1OC(=O)[C@H](C)[C@@H](O[C@H]2C[C@@](C)(OC)[C@@H](O)[C@H](C)O2)[C@H](C)[C@@H](O[C@@H]2O[C@H](C)C[C@H](N(C)C)[C@H]2O)[C@](C)(O)C[C@@H](C)CN(C)[C@H](C)[C@@H](O)[C@]1(C)O [AZITHROMYCIN],Not Active,Not Active,Not Active,,,Not Active,Not Active,Not Active,Not Active,Not Active,,,,,,,,
CC(=O)OCC(CCn1cnc2cnc(N)nc21)COC(C)=O [FAMCICLOVIR],Not Active,Not Active,Not Active,,,Not Active,Not Active,Not Active,Not Active,Not Active,,,,,,,,
C/C=C\c1ccc(O)c(OC)c1 [ISOEUGENOL],Not Active,Not Active,Not Active,,,Not Active,Not Active,Not Active,Not Active,Not Active,,,,,,,,
O=C(c1ccccc1Cl)N1CCC(Cc2ccccc2)CC1,Not Active,Not Active,Not Active,,,Not Active,Not Active,Not Active,Not Active,Not Active,,,,,,,,
Cc1c(F)c(N2CCNC(C)C2)cc2c1c(=O)c(C(=O)O)cn2C1CC1 (centres undefined) [GREPAFLOXACIN],Not Active,Not Active,Not Active,,,Not Active,Not Active,Not Active,Not Active,Not Active,,,,,,,,
CC(C(=O)O)c1ccc(-c2ccccc2)c(F)c1 (centres undefined) [FLURBIPROFEN],Not Active,Not Active,Not Active,,,Not Active,Not Active,Not Active,Not Active,Not Active,,,,,,,,
COC(=O)c1ccccc1O [METHYL SALICYLATE],Not Active,Not Active,Not Active,,,Not Active,Not Active,Not Active,Not Active,Not Active,,,,,,,,
O=C(O)c1cccnc1 [NIACIN],Not Active,Not Active,Not Active,,,Not Active,Not Active,Not Active,Not Active,Not Active,,,,,,,,
CC[C@H](C)C(=O)O[C@H]1C[C@@H](C)C=C2C=C[C@H](C)[C@H](CC[C@@H]3C[C@@H](O)CC(=O)O3)[C@H]21 [LOVASTATIN],Not Active,Not Active,Not Active,8750,8680,Not Active,Not Active,Not Active,Not Active,,,,,,,,,
COBALT(II) ACETYLACETONATE,Not Active,Not Active,Not Active,,,Not Active,Not Active,Not Active,Not Active,Not Active,,,Not Active,Not Active,Not Active,Not Active,Not Active,Not Active
CN(C(=O)CCCOc1ccc2[nH]c(=O)ccc2c1)C1CCCCC1 [CILOSTAMIDE],Not Active,Not Active,Not Active,,,Not Active,Not Active,Not Active,Not Active,Not Active,,,,,,,,
INSULIN HUMAN,Not Active,Not Active,Not Active,,,Not Active,Not Active,Not Active,Not Active,Not Active,,,Not Active,Not Active,Not Active,Not Active,Not Active,Not Active
CCOC(=O)[C@H](CCc1ccccc1)N[C@@H](C)C(=O)N1CCC[C@H]1C(=O)O,Not Active,Not Active,Not Active,,,Not Active,Not Active,Not Active,Not Active,Not Active,,,,,,,,
